{"source": "patent US20050267029A1", "about": "“Compounds which modulate amyloidogenesis and methods for their identification and use” (priority 2004, published 2005)", "molecules": {"B1": {"name": "SAA1.1: purified delipidated murine serum amyloid A isoform 1.1 (protein, UniProt P05366 20-122, looked up)", "Serum amyloid A-1 protein": "GFFSFVHEAFQGAGDMWRAYTDMKEANWKNSDKYFHARGNYDAAQRGPGGVWAAEKISDGREAFQEFFGRGHEDTIADQEANRHGRSGKDPNYYRPPGLPDKY"}, "B2": {"name": "SAA2.1: purified delipidated murine serum amyloid A isoform 2.1 (protein, UniProt P05367 20-122, looked up)", "Serum amyloid A-2 protein": "B1 Serum amyloid A-1 protein with V6I, H7G, N27G, N30D, S31G, G60A, A63S, I76M, D101A"}}, "key": {"J774A.1 cells [1]": {"system": "J774A.1 cells", "conditions": "for Effect on amyloidogenesis / amyloid deposition in cell culture (in words): increasing concentrations of test agent", "experimental": "AA-amyloid deposits were detected by histochemical staining with Alcian blue and direct quantitation by Th-T fluorescence.\nThe ability of a number of potential anti-amyloid compounds to modulate amyloid formation in this cell culture system was tested. To determine the effects of these potential anti-amyloid compounds, cell culture amyloidogenesis was induced in the presence of increasing concentrations of the test agents. Amyloid loads were quantified by Th-T fluorescence.\nThe murine monocytic cell line J774A.1 (American Type Culture Collection, Manassas, Va.) was cultured in RPMI (Sigma) medium which contained 25 mM HEPES, 15% fetal bovine serum (FBS) and 50 μg/ml penicillin-streptomycin, at 37° C., 5% CO2. The cell stocks were passaged every four days, and the medium replaced every other day. Cells were seeded at a minimal density in 8-well chamber slides (Lab-Tek®, Nalge Nunc International, Naperville, Ill.) in 350 μl medium/well and allowed to reach about 80-90% confluence (3 days), about 2.2×10^5 cells per well. To induce AA-amyloidogenesis, cells were treated for 24 hours with 30 μg of AEF in the culture medium, then the medium was removed and the cells rinsed with fresh medium. To these cells 350 μl of medium was added containing either 0.3 mg/ml HDL-SAA, HDL, 0.05 mg/ml SAA1.1 or SAA2.1, replenished every two days for 7 days. At the end of the treatment period, the cells were either stained with Congo red to visualize the amyloid deposits, or the cells were dissolved in 1% NaOH and assayed for amyloid fibrils by thioflavin-T (Th-T) fluorescence as described by LeVine (Methods Enzymol. 1999 309:274-284)."}, "Aβ1-40": {"molecular_target": "Aβ1-40 (Homo sapiens, UniProt P05067)", "sequence (P05067 672-711)": "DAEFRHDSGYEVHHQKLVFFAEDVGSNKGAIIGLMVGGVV", "conditions": "100 μM, cell-free system; cited from earlier work"}, "J774A.1 cells [2]": {"system": "J774A.1 cells", "experiment": "Cell culture amyloidogenesis, amyloid detected by Congo Red (CR) staining", "type": "cell-based, murine", "procedure": "The murine monocytic cell line J774A.1 (American Type Culture Collection, Manassas, Va.) was cultured in RPMI (Sigma) medium which contained 25 mM HEPES, 15% fetal bovine serum (FBS) and 50 μg/ml penicillin-streptomycin, at 37° C., 5% CO2. The cell stocks were passaged every four days, and the medium replaced every other day. Cells were seeded at a minimal density in 8-well chamber slides (Lab-Tek®, Nalge Nunc International, Naperville, Ill.) in 350 μl medium/well and allowed to reach about 80-90% confluence (3 days), about 2.2×10^5 cells per well. […] At the end of the treatment period, the cells were either stained with Congo red to visualize the amyloid deposits, or the cells were dissolved in 1% NaOH and assayed for amyloid fibrils by thioflavin-T (Th-T) fluorescence as described by LeVine (Methods Enzymol. 1999 309:274-284). […]\nCongo Red (CR) staining for amyloid was performed on cells that were rinsed with PBS, fixed for 10 minutes in 70% ethanol, and then stained for 45 minutes with Congo red prepared in alkaline 80% ethanol, NaCl saturated solution. […] Quantitation of amyloid was performed by Th-T fluorescence as described by LeVine (Methods Enzymol. 1999 309:274-284). Fluorescence spectra of Th-T were acquired at 25° C. with a Spectra Max Gemini 96-well plate reader. […] Control spectra of Th-T and cell extract alone were determined. […]"}, "J774 cells": {"system": "J774 cells", "experiment": "HDL-SAA binding/uptake by J774 cells (western blot)", "type": "cell-based, murine", "conditions": "50 μM"}, "IAPP": {"molecular_target": "T1, IAPP (Homo sapiens, UniProt P10997)", "T1 construct": "human islet amyloid polypeptide, a major component of amyloid deposits found in the pancreas", "T1 sequence (P10997 34-70 limits assumed)": "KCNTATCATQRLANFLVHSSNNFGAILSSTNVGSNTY", "conditions": "cited from earlier work"}}, "note": "Where a chain is given by its changes, count along the chain named. Like-named read-outs stand apart in the source and are kept apart here. Square brackets hold non-standard residues; d marks the D form. Ends that are not written are not given here."}
{"molecule": "ADQEANAAGASGKDPNYYRPPGLPAKY (OTHER INFORMATION: Synthetic) [27-mer; R83A/H84A/R86A]", "values": [{"measurement": "Effect on amyloidogenesis / amyloid deposition in cell culture (in words)", "setting": "J774A.1 cells [1]", "value": "complete loss of inhibitory activity"}]}
{"molecule": "KLVFF [Aβ peptide (residues 16-20)]", "values": [{"measurement": "Effect on Aβ1-40 fibril assembly", "setting": "Aβ1-40", "value": "prevent fibril assembly"}]}
{"molecule": "ADQEANRHGRSGKDPNYYRPPGLPAKY ([dA][dD][dQ][dE][dA][dN][dR][dH]G[dR][dS]G[dK][dD][dP][dN][dY][dY][dR][dP][dP]G[dL][dP][dA][dK][dY]) [D-27mer]", "values": [{"measurement": "Formation of CR-detectable amyloid", "setting": "J774A.1 cells [2]; 20 μM, co-incubated with HDL-SAA", "value": "prevented the formation of any CR-detectable amyloid"}]}
{"molecule": "WRAYTDMKEAGWKDGDKYFHARGNYDAAQRGPG [33-mer, residues 17-49 of murine SAA1.1]", "values": [{"measurement": "Enhancement of amyloid formation", "setting": "J774A.1 cells [1]; AEF preincubation not used", "value": "greater than 50%"}, {"measurement": "Enhancement of amyloid formation", "setting": "J774A.1 cells [1]; cells preincubated with AEF", "value": "up to 180%"}, {"measurement": "Effect on amyloidogenesis / amyloid deposition in cell culture (in words)", "setting": "J774A.1 cells [1]", "value": "increasing amyloid load in culture"}, {"measurement": "Effect on HDL-SAA binding to J774 cells", "setting": "J774 cells", "value": "completely blocked HDL-SAA binding/uptake"}]}
{"molecule": "FLVHSS [residues 15-20 of human islet amyloid polypeptide]", "values": [{"measurement": "Effect on beta-sheet transition and fibril formation of human islet amyloid polypeptide", "setting": "IAPP", "value": "strong enhancers of beta-sheet transition and fibril formation"}]}
{"molecule": "LANFLV [residues 12-17 of human islet amyloid polypeptide]", "values": [{"measurement": "Effect on beta-sheet transition and fibril formation of human islet amyloid polypeptide", "setting": "IAPP", "value": "strong enhancers of beta-sheet transition and fibril formation"}]}
{"molecule": "ADQAANEWGRSGKDPNHFRPAGLPEKY [SEQ ID NO:9]", "values": [{"measurement": "Effect on amyloidogenesis / amyloid deposition in cell culture (in words)", "setting": "J774A.1 cells [1]", "value": "equivalent inhibitory activity"}]}
{"molecule": "polyvinylsulfonate [PVS, reference compound]", "values": [{"measurement": "100% inhibition of amyloidogenesis (IC100)", "setting": "J774A.1 cells [1]; Th-T fluorescence", "value": 9, "unit": "µM"}, {"measurement": "IC50", "setting": "J774A.1 cells [1]; read-out: 50% inhibition of amyloidogenesis (IC50), Th-T fluorescence, test agent present throughout HDL-SAA treatments", "value": 500, "unit": "nM"}, {"measurement": "Effect on HDL-SAA binding to J774 cells", "setting": "J774 cells", "value": "prevented HDL-SAA binding to J774 cells"}]}
{"molecule": "heparin [reference compound]", "values": [{"measurement": "Effect on HDL-SAA binding to J774 cells", "setting": "J774 cells", "value": "prevented HDL-SAA binding to cells"}]}
{"molecule": "chondroitin sulfate [reference compound]", "values": [{"measurement": "Effect on amyloidogenesis / amyloid deposition in cell culture (in words)", "setting": "J774A.1 cells [1]", "value": "unable to affect amyloid deposition at any concentration tested"}]}
{"molecule": "ADQEANRHGRSGKDPNYYRPPGLPAKY [27-mer]", "values": [{"measurement": "IC50", "setting": "J774A.1 cells [1]", "value": 20, "unit": "nM"}, {"measurement": "Fold less than the SAA1.1 concentration used to generate AA-amyloid", "setting": "J774A.1 cells [1]; 70 nM versus 4.2 μM SAA1.1", "value": "about 60 fold"}, {"measurement": "Fold less peptide needed than the IAPP peptides (100 μM) for similar inhibition", "setting": "J774A.1 cells [1]; 70 nM versus 100 μM", "value": 1400, "unit": "fold"}, {"measurement": "IC50 fold lower than that for PVS", "setting": "J774A.1 cells [1]; 27-mer versus PVS", "value": 25, "unit": "fold"}, {"measurement": "Concentration achieving a similar level of inhibition (80 to 85%) of amyloid load", "setting": "J774A.1 cells [1]; SAA1.1 concentration 4.2 μM", "value": 70, "unit": "nM"}, {"measurement": "Effect on HDL-SAA binding to J774 cells", "setting": "J774 cells", "value": "did not interfere with HDL-SAA binding to cells"}]}
{"molecule": "ANRHGRSGKNPNYYRPPGLPAKY (ANRHGRSGKNPNYYRPPGLPAKY-NH2) [23-mer basic]", "values": [{"measurement": "Inhibition of CR-detectable amyloid", "setting": "J774A.1 cells [2]; 2 μM", "value": "completely inhibit CR-detectable amyloid"}]}
{"molecule": "PLPAQGKPGPDHYARNDSYAKNRYERG (OTHER INFORMATION: Synthetic) [SEQ ID NO:8, reference compound]", "values": [{"measurement": "Effect on amyloidogenesis / amyloid deposition in cell culture (in words)", "setting": "J774A.1 cells [1]", "value": "complete loss of inhibitory activity"}]}
{"molecule": "B1", "values": [{"measurement": "Amyloid produced, % of HDL-SAA", "setting": "J774A.1 cells [1]; purified delipidated isoform 50 μg/ml with AEF", "value": 9, "unit": "%"}]}
{"molecule": "B2", "values": [{"measurement": "Amyloid produced from SAA form (in words)", "setting": "J774A.1 cells [1]; with AEF, CR stain or Th-T fluorescence", "value": "no amyloid was detected"}]}
